Assay results as given in patent US6825201B2 (priority 2001, dated 2004).

The compounds below were run on HIV-1 single-round infectious reporter virus (assay: microbe, parasite or virus in culture). Conditions: HeLa CD4 CCR5 cells, single-round HIV-1 reporter virus, MOI 0.01, luciferase read 72 hours after infection; read-out: EC50 Range.
Type: cell-based
Method: Virus infection—Human epithelial cell line, HeLa, expressing the HIV-1 receptors CD4 and CCR5 was propagated in Dulbecco's Modified Eagle Medium (Life Technologies, Gaithersburg, Md.) containing 10% fetal Bovine serum (FBS, Sigma, St. Louis, Mo.) and supplemented with 0.2 mg/ml Geneticin (Life Technologies, Gaithersburg, Md.) and 0.4 mg/ml Zeocin (Invitrogen, Carlsbad, Calif.).
Transfections were performed using lipofectAMINE PLUS reagent as described by the manufacturer (Life Technologies, Gaithersburg, Md.).
1. Compound was added to HeLa CD4 CCR5 cells plated in 96 well plates at a cell density of 5×10^4 cells per well in 100 μl Dulbecco's Modified Eagle Medium containing 10% fetal Bovine serum at a concentration of <20 μM.
2. 100 μl of single-round infectious reporter virus in Dulbecco's Modified Eagle Medium was then added to the plated cells and compound at an approximate multiplicity of infection (MOI) of 0.01, resulting in a final volume of 200 μl per well and a final compound concentration of <10 μM.
3. Samples were harvested 72 hours after infection.
4. Viral infection was monitored by measuring luciferase expression from viral DNA in the infected cells using a luciferase reporter gene assay kit (Roche Molecular Biochemicals, Indianapolis, Ind.). Infected cell supernatants were removed and 50 μl of Dulbecco's Modified Eagle Medium (without phenol red) and 50 μl of luciferase assay reagent reconstituted as described by the manufacturer (Roche Molecular Biochemicals, Indianapolis, Ind.) was added per well. Luciferase activity was then quantified by measuring luminescence using a Wallac microbeta scintillation counter.
5. An EC50 provides a method for comparing the antiviral potency of the compounds of this invention. The effective concentration for fifty percent inhibition (EC50) was calculated with the Microsoft Excel Xlfit curve fitting software.

**Q.** Which EC50 does the source give for “N-(benzoyl)-N′-[(4-fluorol-indolin-3-yl)-acetyl]-piperazine [Example 21]” here?
**A.** < 1 µM

Same assay, conditions: Human immunodeficiency virus 1, HeLa-CD4/CCR5, 72 h, read-out: EC50 Range

**Q.** With `CC1CN(C(=O)c2ccccc2)CCN1C(=O)C(=O)c1cc2cc(F)ccc2[nH]1` (centres unmarked) [Example 8] as the compound, how does the EC50 read?
**A.** < 1 µM

**Q.** Which EC50 does the source give for `O=C(C(=O)N1CCN(C(=O)c2ccccc2)CC1)c1cccc2[nH]ccc12` [Example 22, 1-(4-benzoyl-piperazin-1-yl)-2-(1H-indol-4-yl)-ethane-1,2-dione] here?
**A.** < 1 µM

**Q.** Which EC50 does the source give for `COc1c(C(=O)C(=O)N2CCN(C(=O)c3ccccc3)CC2)cnc2c1c(C)nn2C` [Example 10] here?
**A.** 1 to 5 µM

**Q.** Which EC50 does the source give for `O=C(C(=O)N1CCN(C(=O)c2ccccc2)CC1)c1cc2ccccc2[nH]1` [Example 5, 1-(benzoyl)-4-[(indol-2-yl)-2-oxoacetyl]piperazine] here?
**A.** < 1 µM

**Q.** `O=C(C(=O)N1CCN(C(=O)c2ccccc2)CC1)c1cc2ccccc2s1` [Example 19, 1-(benzoyl)-4-[(benzothiophen-2-yl)-2-oxoacetyl]piperazine] was tested. Which EC50 did it give?
**A.** 1 to 5 µM

**Q.** How did the EC50 turn out when `COc1ccc(C#N)c2[nH]cc(C(=O)N3CCN(C(=O)c4ccccc4)CC3)c12` [Example 27] was run?
**A.** > 0.5 µM

**Q.** Which EC50 does the source give for `O=C(C(=O)N1CCN(C(=O)c2ccccc2)CC1)c1csc2ccccc12` [Example 18, 1-(benzoyl)-4-[(benzothiophen-3-yl)-2-oxoacetyl]piperazine] here?
**A.** 1 to 5 µM

**Q.** `COc1ccc(C#N)c2[nH]cc(C(=O)N3CCN(C(=O)c4ccccc4)C[C@H]3C)c12` [Example 28] was tested. Which EC50 did it give?
**A.** > 0.5 µM

**Q.** How did the EC50 turn out when `CC1CN(C(=O)c2ccccc2)CCN1C(=O)C(=O)c1cc2cc(Cl)ccc2[nH]1` (centres unmarked) [Example 9] was run?
**A.** < 1 µM

**Q.** Which EC50 does the source give for `CCCCNc1c(C(=O)C(=O)N2CCN(C(=O)c3ccccc3)CC2)cnc2c1cnn2CC` [Example 14] here?
**A.** > 5 µM

**Q.** With `COc1ccc2cc(C(=O)C(C#N)N3CCN(C(=O)c4ccccc4)CC3C)[nH]c2c1` (centres unmarked) [Example 2] as the compound, how does the EC50 read?
**A.** < 1 µM

**Q.** `CCCCNc1c(C(=O)C(=O)N2CCN(C(=O)c3ccccc3)CC2C)cnc2c1cnn2CC` (centres unmarked) [Example 13] was tested. Which EC50 did it give?
**A.** < 1 µM

**Q.** How did the EC50 turn out when `CNC(=O)c1ccc(F)c2c(CC(=O)N3CCN(C(=O)c4ccccc4)CC3)c[nH]c12` [Example 31, 3-[2-(4-Benzoyl-piperazin-1-yl)-2-oxo-ethyl]-4-fluoro-1H-indole-7-carboxylic acid methylamide] was run?
**A.** 1 to 5 µM

**Q.** For `COc1cccc2occ(C(=O)C(=O)N3CCN(C(=O)c4ccccc4)CC3)c12` [Example 6], which EC50 is on record?
**A.** > 0.5 µM

**Q.** How did the EC50 turn out when `CNC(=O)c1ccc(F)c2c(C(O)C(=O)N3CCN(C(=O)c4ccccc4)CC3)c[nH]c12` (centres unmarked) [Example 32, 3-[2-(4-Benzoyl-piperazin-1-yl)-1-hydroxy-2-oxo-ethyl]-4-fluoro-1H-indole-7-carboxylic acid methylamide] was run?
**A.** < 1 µM

**Q.** How did the EC50 turn out when `O=C(c1ccccc1)N1CCN(C(=O)c2c[nH]c3cccc(F)c23)CC1` [Example 29] was run?
**A.** < 1 µM

**Q.** With `COc1cccc2occ(C(=O)C(C#N)N3CCN(C(=O)c4ccccc4)CC3)c12` (centres unmarked) [Example 3] as the compound, how does the EC50 read?
**A.** < 1 µM

**Q.** Which EC50 does the source give for `COc1ccc(-c2nc(C)n[nH]2)c2[nH]cc(C(=O)N3CCN(C(=O)c4ccccc4)CC3)c12` [Example 26] here?
**A.** 1 to 5 µM

**Q.** For `COc1c(C(=O)C(=O)N2CCN(C(=O)c3ccccc3)CC2C)cnc2c1c(C)nn2C` (centres unmarked) [Example 12], which EC50 is on record?
**A.** 1 to 5 µM
